“And” between values parts separate entries of the source, which are not always exact repeats. Identical values can stand only once.
Test system: placental gene expression
Test: Placental gene expression (Affymetrix Rat Genome Chip 230.2) after SSRI (fluoxetine) exposure throughout gestation
Type: in vivo
Method: Gene expression data from pregnant rats under different forms of dietary restriction was gathered. […] (N=8) • Group 2 (CR50): Rats Given 50% of their Normal Daily Intake of Food. (N=5) • Group 3 (CR70): Rats Given 70% of their Normal Daily Intake of Food. […] (N=6) Placentas from the rats of each Group were harvested on Day 21 of gestation. RNA was extracted and gene expression was measured based on hybridization of RNA to Affymetrix Rat Genome Chips™ (230.2) (Affymetrix, Santa Clara, Calif.).
In order to determine whether placental gene expression profiling can be used to identify other prenatal exposures such as toxicants and drugs, a group of rats with drug exposure was monitored as described above. […] As with control, CR50, CR70, and HF groups, placentas from the mothers were sampled after 21 days of gestation and gene expression monitored utilizing an Affymetrix Rat Genome Chip.

[1] = rat placenta, day 21 of gestation, individual animals of SSRI group

In the case of `CNCCC(Oc1ccc(C(F)(F)F)cc1)c1ccccc1` (stereo not shown) [fluoxetine, Fluoxetine], the “expression, probeset 1391042_at” value (placenta, SSRI-exposed samples) is reported as 7.197 and 7.167 and 6.844 and 6.389 and 6.757 and 6.835, the “expression, probeset 1391078_at” value (placenta, SSRI-exposed samples) is reported as 9.617 and 9.614 and 9.751 and 9.434 and 10.05 and 9.264 and the “expression, probeset 1391376_at” value (placenta, SSRI-exposed samples) is reported as 7.297 and 7.473 and 6.881 and 6.738 and 6.838 and 6.654. The “expression, probeset 1391555_at” value (placenta, SSRI-exposed samples) was 7.012 and 7.728 and 6.644 and 6.541 and 6.178 and 6.968, the “expression, probeset 1391709_at” value (placenta, SSRI-exposed samples) was 4.661 and 4.684 and 4.722 and 4.806 and 4.713 and 4.47 and the “expression, probeset 1392028_at” value (placenta, SSRI-exposed samples) was 6.162 and 6.747 and 6.346 and 6.242 and 6.323 and 6.159. For the same compound, the “expression, probeset 1392231_at” value (placenta, SSRI-exposed samples) was 6.879 and 7.148 and 7.615 and 7.767 and 7.913 and 7.35, the “expression, probeset 1392936_at” value (placenta, SSRI-exposed samples) was 8.882 and 8.406 and 9.262 and 8.975 and 9.393 and 8.807 and the “expression, probeset 1392950_at” value (placenta, SSRI-exposed samples) was 3.949 and 4.094 and 3.999 and 4.085 and 4.164 and 3.919. The “expression, probeset 1393104_at” value (placenta, SSRI-exposed samples) was 5.321 and 5.704 and 5.504 and 5.333 and 5.921 and 5.58, the “expression, probeset 1393266_at” value (placenta, SSRI-exposed samples) was 4.99 and 5.174 and 4.982 and 4.609 and 4.824 and 4.636 and the “expression, probeset 1393517_at” value (placenta, SSRI-exposed samples) was 6.631 and 6.746 and 6.287 and 6.483 and 6.515 and 6.633. The “expression, probeset 1393539_at” value (placenta, SSRI-exposed samples) was 6.157 and 5.169 and 4.952 and 5.172 and 5.083 and 5.053, the “expression, probeset 1393580_at” value (placenta, SSRI-exposed samples) was 5.687 and 6.03 and 5.819 and 5.753 and 6.108 and 5.967 and the “expression, probeset 1393752_at” value (placenta, SSRI-exposed samples) was 6.208 and 6.548 and 6.148 and 6.455 and 6.651 and 6.417. For the same compound, the “expression, probeset 1393798_at” value (placenta, SSRI-exposed samples) was 3.547 and 3.62 and 3.802 and 3.629 and 3.836 and 3.782, the “expression, probeset 1393853_at” value (placenta, SSRI-exposed samples) was 5.346 and 5.933 and 5.865 and 5.835 and 5.821 and 5.912 and the “expression, probeset 1393939_at” value (placenta, SSRI-exposed samples) was 4.71 and 4.865 and 4.742 and 4.586 and 4.592 and 4.507. The “expression, probeset 1393989_at” value (placenta, SSRI-exposed samples) was 5.99 and 6.475 and 6.07 and 6.001 and 6.425 and 6.268, the “expression, probeset 1394361_a_at” value (placenta, SSRI-exposed samples) was 4.204 and 4.507 and 4.247 and 4.097 and 4.402 and 4.275 and the “expression, probeset 1394414_at” value (placenta, SSRI-exposed samples) was 9.565 and 9.667 and 9.428 and 9.394 and 9.769 and 9.655. The “expression, probeset 1394498_at” value (placenta, SSRI-exposed samples) was 5.626 and 5.476 and 5.778 and 5.78 and 5.589 and 5.688, the “expression, probeset 1394762_at” value (placenta, SSRI-exposed samples) was 3.748 and 3.837 and 3.727 and 3.741 and 3.941 and 3.853 and the “expression, probeset 1394790_at” value (placenta, SSRI-exposed samples) was 6.185 and 6.363 and 6.208 and 6.069 and 6.016 and 6.008. For the same compound, the “expression, probeset 1395303_at” value (placenta, SSRI-exposed samples) was 3.284 and 3.242 and 3.289 and 3.3 and 3.261 and 3.274, the “expression, probeset 1395316_at” value (placenta, SSRI-exposed samples) was 6.786 and 6.744 and 6.399 and 5.525 and 5.977 and 6.48 and the “expression, probeset 1395875_at” value (placenta, SSRI-exposed samples) was 7.411 and 7.212 and 7.607 and 7.667 and 7.918 and 7.66. For the same compound, the “expression, probeset 1395951_at” value (placenta, SSRI-exposed samples) was 4.46 and 4.582 and 4.341 and 4.395 and 4.516 and 4.568, the “expression, probeset 1395970_at” value (placenta, SSRI-exposed samples) was 4.781 and 4.846 and 4.597 and 4.342 and 4.707 and 4.733 and the “expression, probeset 1396104_at” value (placenta, SSRI-exposed samples) was 5.464 and 5.416 and 5.468 and 5.564 and 5.567 and 5.601. The “expression, probeset 1396326_at” value (placenta, SSRI-exposed samples) was 5.928 and 5.926 (2×) and 5.857 and 6.008 and 5.802, the “expression, probeset 1397116_at” value (placenta, SSRI-exposed samples) was 3.723 and 3.556 and 3.711 and 3.773 and 3.705 and 3.589 and the “expression, probeset 1397187_at” value (placenta, SSRI-exposed samples) was 5.847 and 6.088 and 6.024 and 5.915 and 5.91 and 5.886. For the same compound, the “expression, probeset 1397500_x_at” value (placenta, SSRI-exposed samples) was 6.721 and 7.079 and 6.818 and 6.587 and 6.983 and 6.477, the “expression, probeset 1397676_at” value (placenta, SSRI-exposed samples) was 6.024 and 6.128 and 5.935 and 6.174 and 6.311 and 5.898 and the “expression, probeset 1397738_at” value (placenta, SSRI-exposed samples) was 4.159 and 4.154 and 4.198 and 4.197 and 4.131 and 4.271. The “expression, probeset 1397834_at” value (placenta, SSRI-exposed samples) was 6.223 and 6.44 and 5.752 and 5.565 and 5.81 and 5.978, the “expression, probeset 1397911_at” value (placenta, SSRI-exposed samples) was 5.777 and 6.103 and 5.669 and 5.522 and 5.664 and 5.597 and the “expression, probeset 1397956_at” value (placenta, SSRI-exposed samples) was 5.497 and 5.765 and 4.575 and 4.745 and 5.255 and 5.147. For the same compound, the “expression, probeset 1398025_at” value (placenta, SSRI-exposed samples) was 6.981 and 7.045 and 6.561 and 6.889 and 6.773 and 6.868, the “expression, probeset 1398196_at” value (placenta, SSRI-exposed samples) was 5.275 and 5.259 and 5.614 and 5.101 and 5.599 and 5.566 and the “expression, probeset 1398208_s_at” value (placenta, SSRI-exposed samples) was 6.67 and 6.822 and 6.248 and 6.32 and 5.983 and 6.359. The “expression, probeset 1398571_x_at” value (placenta, SSRI-exposed samples) was 5.476 and 5.783 and 5.339 and 5.581 and 5.638 and 5.597, the “number of probe sets whose expression was altered by exposure” value (rat placenta, day 21 of gestation, approximately 10 mg/kg/day in drinking water throughout pregnancy, vs control) was 281 probe sets and the “Log base 2 expression for G6 (probe set 1369132, solute carrier 18, member 2)” value [1] was 8.97 log base 2 and 9.76 log base 2 and 8.56 log base 2 and 8.71 log base 2 and 8.41 log base 2 and 9.1 log base 2. The “Log base 2 expression for G7 (probe set 1368474, vascular adhesion molecule 1)” value [1] was 5.83 log base 2 and 6.83 log base 2 and 5.81 log base 2 and 5.78 log base 2 and 6.05 log base 2, the “Log base 2 expression for G8 (probe set 1388116, collagen type 1 alpha)” value [1] was 8.34 log base 2 and 8.25 log base 2 and 7.56 log base 2 and 7.7 log base 2 and 7.57 log base 2 and 7.69 log base 2 and the “Log base 2 expression for G9 (probe set 1368558, allograft inflammatory factor 1)” value [1] was 5.07 log base 2 and 5.61 log base 2 and 6.11 log base 2 and 5.3 log base 2 and 5.39 log base 2. For the same compound, the “Log base 2 expression for G10 (probe set 1387796, arachidonate 12 lipoxygenase)” value [1] was 7.19 log base 2 and 8.37 log base 2 and 8.23 log base 2 and 6.76 log base 2 and 8.03 log base 2.

From patent US20090087845A1, “Genetic Markers Of True Low Birth Weight” (priority 2005, published 2009)
